In patent publication US20110086891A1, “Solid Forms of 2-(2,4-Difluorophenyl)-6-(1-(2,6-Difluorophenyl)Ureido)Nicotinamide)” (Vertex Pharmaceuticals Incorporated, priority 2009, published 2011):
In brackets after ≈: the same amount, converted by molar mass. Entries after “also recorded” stand apart in the source; their conditions may differ.

Key:
Assay type in all cases: physicochemical
[1] = Solubility analysis (in water); details: 25 °C, thermodynamic from solid
Method: This was measured by suspending enough Compound I in 0.25 mL of solvent (water) to give a maximum final concentration of ≧10 mg/ml of the parent free form of the compound. The suspension was equilibrated at 25° C. for 24 hrs followed by a pH check and filtration through a glass fibre C96 well plate. The filtrate was then diluted down by a factor of 101. Quantitation was by HPLC (Table XI) with reference to a standard, diluted and undiluted tests were injected. The solubility was calculated by integration of the peak area found at the same retention time as the peak maximum in the standard injection. If there is sufficient solid in the filter plate the XRPD is normally checked for phase changes, hydrate formation, amorphization, crystallization, etc.

[2] = Apparent (non-equilibrium) solubilities of Form C in various solvents; details: thermodynamic from solid
Method: Table XIII contains representative apparent (non-equilibrium) solubilities of Form C in various exemplary solvents.
Fifty (50.0) mg of Compound I, Form C was weighed into a small, screw-top vial. The relevant solvent was added in portions until a clear solution was obtained. In several cases, solubilization was aided by heating with a heat gun and then allowed to cool down to rt. The data provided in Table XIII are representative and some variability may occur between lots of a particular sample, e.g., about 10%.

[3] = Stability studies at 40° C./75% RH (physical and chemical stability, XRPD)
Text: In some embodiments, less than 25% of the solid form of Compound I decomposes, in some embodiments, less than about 20%, less than about 15%, less than about 10%, less than about 5%, less than about 3%, less than about 1%, less than about 0.5% of the form of Compound I decomposes under the conditions specified. In some embodiments, no detectable amount of the solid form of Compound I decomposes. […] In some embodiments, less than 25% of the solid form of Compound I changes into one or more different physical forms when subjected to specified conditions. In some embodiments, less than about 20%, less than about 15%, less than about 10%, less than about 5%, less than about 3%, less than about 1%, less than about 0.5% of the solid form of Compound I changes into one or more different physical forms of Compound I when subjected to specified conditions. In some embodiments, no detectable amount of the solid form of Compound I changes into one or more physically different solid forms of Compound I.

[4] = Gravimetric vapour sorption (GVS) studies
Method: All samples were run on a Hiden IGASorp moisture sorption analyzer running CFRSorp software. Sample sizes were typically 10 mg. A moisture absorption-desorption isotherm was performed as outlined below in Table X (2 scans giving 1 complete cycle). All samples were loaded/unloaded at typical room humidity and temperature (40% RH, 25° C.). All samples were analysed by XRPD post GVS analysis. The standard isotherm was performed at 25° C. at 10% RH intervals over a 0-90% RH range.

[5] = Interconversion studies (slurries in EtOAc, MeOH and water); details: ambient conditions
Method: Interconversion studies between the different forms of Compound I described herein were carried out using the general procedure outlined here:
Interconversion studies were conducted in EtOAc, MeOH and water with materials giving XRPD patterns A, P, C and F. Attempts were made to monitor the presence of the different forms of Compound I in the methanol and ethyl acetate interconversion slurries using Raman analysis and XRPD. The presence of the solvents was dominant in the Raman spectra of the slurries. […] After slurrying for 10 days, pattern A was obtained from MeOH. Pattern C was obtained from all samples slurried in EtOAc or water. […] Interconversion data can be found in Tables XVII.

[6] = Relative stability studies: slurrying 1:1 mixtures of forms in 3:1 water:ethanol at various temperatures; details: slurry in 3:1 water:ethanol
Method: 1:1 mixtures of Form C and form G of Compound I were slurried in 3:1 water:ethanol at a range of temperatures to determine the relative stability at different temperatures. 5 mg of Form C was mixed with 5 mg of Form G in a glass vial. 1.0 ml of 3:1 water:ethanol was added and the resulting slurry was stirred at 5° C. for 10 days. The resulting solid was isolated by filtration and analysed by XRPD (see FIG. 17).
(§1) The above procedure was repeated at 25, 50 and 80° C.
1:1 mixtures of Form C and Form F were slurried in 3:1 water:ethanol at a range of temperatures to determine the relative stability at different temperatures. […] Ethanol was used in addition to water in order to increase the amount of Compound I in solution and so increase the rate of conversion between forms. Ethanol was chosen as no ethanol solvate of Compound I was known. 10 mg of Form C was mixed with 10 mg of Form F in a glass vial. 2.0 ml of 3:1 water:ethanol was added and the resulting slurry was stirred at 5° C. for 24 hours. Solid was isolated by filtration and analysed by XRPD.
as §1
1:1 mixtures of Form F and Form G were slurried in 3:1 water:ethanol at a range of temperatures to determine the relative stability at different temperatures. 10 mg of Form F was mixed with 10 mg of Form G in a glass vial. 2.0 ml of 3:1 water:ethanol was added and the resulting slurry was stirred at 5° C. for 24 hours. The resulting solid was isolated by filtration and analysed by XRPD. The above procedure was repeated at 25, 50 and 70° C. 70° C. was used instead of 80° C. in an attempt to reduce degradation.

Compound: NC(=O)c1ccc(N(C(N)=O)c2c(F)cccc2F)nc1-c1ccc(F)cc1F [Form C, 2-(2,4-difluorophenyl)-6-(1-(2,6-difluorophenyl)ureido)nicotinamide]
- solubility at 24 h [1]: ≥ 0.02 mg/mL
- solubility ([2]; organic solvent or mixture, apparent, 1,4-dioxane): 100 mg/mL (≈ 247 mM)
- solubility ([2]; organic solvent or mixture, apparent, 1-Butanol): 50 mg/mL (≈ 124 mM)
- solubility ([2]; organic solvent or mixture, apparent, 2-Butanone): 50 mg/mL (≈ 124 mM)
- solubility ([2]; organic solvent or mixture, apparent, 2-Propanol): 50 mg/mL (≈ 124 mM)
- solubility ([2]; organic solvent or mixture, apparent, 2-Propyl Acetate): < 20 mg/mL
- solubility ([2]; organic solvent or mixture, apparent, Acetone): 50 mg/mL (≈ 124 mM)
- solubility ([2]; organic solvent or mixture, apparent, Acetonitrile): 33 mg/mL (≈ 81.6 mM)
- solubility ([2]; organic solvent or mixture, apparent, Butyl acetate): 33 mg/mL (≈ 81.6 mM)
- solubility ([2]; organic solvent or mixture, apparent, DMSO): 100 mg/mL (≈ 247 mM)
- solubility ([2]; organic solvent or mixture, apparent, Dimethylformamide): 100 mg/mL (≈ 247 mM)
- solubility ([2]; organic solvent or mixture, apparent, Ethanol): 50 mg/mL (≈ 124 mM)
- solubility ([2]; organic solvent or mixture, apparent, Ethyl Acetate): 20 mg/mL (≈ 49.5 mM)
- solubility ([2]; organic solvent or mixture, apparent, Heptane): < 20 mg/mL
- solubility ([2]; organic solvent or mixture, apparent, Hexafluorophenol): 100 mg/mL (≈ 247 mM)
- solubility ([2]; organic solvent or mixture, apparent, Methanol): 100 mg/mL (≈ 247 mM)
- solubility ([2]; organic solvent or mixture, apparent, Methyl isobutyl ketone): 50 mg/mL (≈ 124 mM)
- solubility ([2]; organic solvent or mixture, apparent, Methylene Chloride): < 20 mg/mL
- solubility ([2]; organic solvent or mixture, apparent, N,N-dimethylacetamide): 100 mg/mL (≈ 247 mM)
- solubility ([2]; organic solvent or mixture, apparent, Tert-butyl methyl ether): < 20 mg/mL
- solubility ([2]; organic solvent or mixture, apparent, Tetrahydrofuran): 20 mg/mL (≈ 49.5 mM)
- solubility ([2]; organic solvent or mixture, apparent, Toluene): 20 mg/mL (≈ 49.5 mM)
- solubility ([2]; organic solvent or mixture, apparent, cyclohexane): < 20 mg/mL
- solubility ([2]; apparent, Water): < 20 mg/mL
- results of stability studies as seen by XRPD (before and after spectra) [3]: before and after spectra are similar
- time remaining in substantially the same physical form ([3]; 40° C./75% RH): at least two
- total weight gain from 0 to 90% RH ([4]; 0 to 90% RH, T=25° C.): 0.15%
- weight gain up to 60% RH ([4]; up to 60% RH, 25° C.): negligible
- relative stability of unsolvated forms [5]: most stable unsolvated form at ambient conditions
- relative stability between forms [6]: more stable than Form G at a temperature of 50 °C or above; also recorded: more stable than Form F at 50 and 80 °C
